Reference: US20230203098A1, “HUMAN TRANSFERRIN RECEPTOR BINDING PEPTIDE” (priority 2020, published 2023)
pKd: −log10 of the molar value. Read-outs that look alike come from different tables or passages of the source. Where a SMILES comes first, the peptide text is derived from it. Bridges are numbered along the chain shown (N, C = ends). Primed or numbered codes have the meaning given here. [ ]: non-standard residue; d: D form. Trp(1-CH2COOH) = N[C@@H](Cc1cn(CC(=O)O)c2ccccc12)C(=O)O; PEG12 = NCCOCCOCCOCCOCCOCCOCCOCCOCCOCCOCCOCCOCCC(=O)O; NMePhe(3-Cl) = CN[C@@H](Cc1cccc(Cl)c1)C(=O)O; NMeW = CN[C@@H](Cc1c[nH]c2ccccc12)C(=O)O; Lys(N3) = [N-]=[N+]=NCCCC[C@H](N)C(=O)O; NMeY = CN[C@@H](Cc1ccc(O)cc1)C(=O)O; NMeF = CN[C@@H](Cc1ccccc1)C(=O)O; Aad = N[C@@H](CCCC(=O)O)C(=O)O; Ahp(2) = CCCCC[C@H](N)C(=O)O; Chg = N[C@H](C(=O)O)C1CCCCC1; hLys = NCCCCC[C@H](N)C(=O)O; PEG11′ = not defined here

Target: transferrin receptor (hTfR) (Homo sapiens, UniProt P02786)
Experiment: Intermolecular interaction evaluation test between transferrin receptor (hTfR) and peptide by surface plasmon resonance (SPR)
Format: binding
Method in brief: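 hTfR captured on Ni-NTA chip then amine-coupled; peptides run single-cycle kinetics at 5–100 nM in 10 mM HEPES pH 8.0, 150 mM NaCl, 0.05% Tween 20, 0.1% BSA, 1.0% DMSO. KD from least-squares curve fitting of sensorgrams.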

[1] = surface plasmon resonance, peptide vs hTfR, read-out: KD value, hTfR binding by SPR (class symbol)
[2] = binding to hTfR by SPR, Table 2 peptides, read-out: KD value (SPR) class
[3] = SPR, hTfR No. 894 variants with PEG12c linker (Table 2), read-out: KD

Chain of transferrin receptor (hTfR) (P02786 whole entry): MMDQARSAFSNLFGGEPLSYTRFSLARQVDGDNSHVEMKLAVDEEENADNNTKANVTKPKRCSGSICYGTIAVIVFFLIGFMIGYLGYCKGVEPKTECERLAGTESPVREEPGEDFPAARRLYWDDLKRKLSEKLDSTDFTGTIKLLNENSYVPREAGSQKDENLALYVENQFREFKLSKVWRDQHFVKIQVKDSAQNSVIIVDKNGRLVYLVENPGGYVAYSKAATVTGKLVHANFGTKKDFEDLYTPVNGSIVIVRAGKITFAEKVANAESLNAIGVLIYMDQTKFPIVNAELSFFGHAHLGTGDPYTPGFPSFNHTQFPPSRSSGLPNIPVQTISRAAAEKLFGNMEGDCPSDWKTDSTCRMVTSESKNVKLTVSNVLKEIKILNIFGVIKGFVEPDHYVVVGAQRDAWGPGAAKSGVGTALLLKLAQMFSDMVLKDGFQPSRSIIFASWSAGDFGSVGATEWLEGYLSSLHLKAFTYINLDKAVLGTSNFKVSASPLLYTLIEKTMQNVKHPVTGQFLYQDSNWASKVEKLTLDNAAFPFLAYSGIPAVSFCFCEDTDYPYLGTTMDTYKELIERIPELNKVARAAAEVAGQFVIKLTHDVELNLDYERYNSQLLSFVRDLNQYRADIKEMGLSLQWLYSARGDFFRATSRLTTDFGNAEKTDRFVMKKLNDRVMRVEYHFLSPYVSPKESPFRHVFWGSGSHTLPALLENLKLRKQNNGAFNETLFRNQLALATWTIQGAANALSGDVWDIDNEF

Molecule: CC[C@H](C)[C@@H]1NC(=O)[C@H](Cc2ccc(O)cc2)NC(=O)[C@H](Cc2ccc(O)cc2)NC(=O)[C@H](CC(N)=O)NC(=O)[C@H](Cc2c[nH]c3ccccc23)NC(=O)[C@H](C(C)C)NC(=O)[C@H](Cc2ccccc2)N(C)C(=O)[C@H](C(C)C)NC(=O)[C@H](C)NC(=O)CSC[C@@H](C(=O)N[C@H](CCC(=O)O)C(N)=O)NC(=O)[C@H](Cc2ccc(O)cc2)N(C)C(=O)[C@H](Cc2ccc(O)cc2)NC(=O)[C@H](CCCNC(=N)N)NC(=O)[C@H](C)NC(=O)[C@H]([C@@H](C)CC)NC1=O [compound 291] ({CH2CO}-AV[NMeF]VWNYYIIARY[NMeY]C[dE]-NH2; thioether N-15)
- pKd [1]: 7.00 to 9.00

Molecule: CC[C@H](C)[C@@H]1NC(=O)[C@H](C2CCCCC2)NC(=O)[C@H](Cc2ccc(O)cc2)NC(=O)[C@H](Cc2ccc(O)cc2)NC(=O)[C@H](CC(N)=O)NC(=O)[C@H](Cc2c[nH]c3ccccc23)NC(=O)[C@H](C2CCCCC2)NC(=O)[C@H](Cc2ccccc2)N(C)C(=O)[C@H](C(C)C)NC(=O)[C@H](C)NC(=O)CSC[C@@H](C(N)=O)NC(=O)[C@H](Cc2ccc(O)cc2)N(C)C(=O)[C@H](Cc2ccc(O)cc2)NC(=O)[C@H](CCCNC(=N)N)NC(=O)[C@H](CCCNC(=N)N)NC1=O [compound 267] ({CH2CO}-AV[NMeF][Chg]WNYY[Chg]IRRY[NMeY]C-NH2; thioether N-15)
- pKd [2]: 6.00 to 7.00

Molecule: CC[C@H](C)[C@@H]1NC(=O)[C@H](Cc2ccc(OC)cc2)NC(=O)[C@H](Cc2ccc(O)cc2)NC(=O)[C@H](CC(N)=O)NC(=O)[C@H](Cc2c[nH]c3ccccc23)N(C)C(=O)[C@H](C(C)C)NC(=O)[C@H](Cc2cccc(Cl)c2)N(C)C(=O)[C@H](CCC(=O)O)NC(=O)[C@H](C)NC(=O)CSC[C@@H](C(N)=O)NC(=O)[C@H](Cc2ccc(O)cc2)N(C)C(=O)[C@H](Cc2ccccc2)NC(=O)[C@H](CCCNC(=N)N)NC(=O)[C@H](CCCNC(=N)N)NC(=O)[C@H]([C@@H](C)CC)NC1=O [compound 233]
- pKd [2]: > 9.00

Molecule: CC[C@H](C)[C@@H]1NC(=O)[C@H](Cc2ccc(O)cc2)NC(=O)[C@H](Cc2ccc(O)cc2)NC(=O)[C@H](CC(N)=O)NC(=O)[C@H](Cc2c[nH]c3ccccc23)NC(=O)[C@H](C(C)C)NC(=O)[C@H](Cc2ccccc2)N(C)C(=O)[C@H](C(C)C)NC(=O)[C@H](C)NC(=O)CSC[C@@H](C(N)=O)NC(=O)[C@H](Cc2ccc(O)cc2)N(C)C(=O)[C@H](Cc2ccc(O)cc2)NC(=O)[C@H](CCCNC(=N)N)NC(=O)[C@H](CCCNC(=N)N)NC(=O)[C@H]([C@@H](C)CC)NC1=O [compound 296]
- pKd [1]: 7.00 to 9.00

Molecule: CC[C@H](C)[C@@H]1NC(=O)[C@H](Cc2ccc(O)cc2)NC(=O)[C@H](C)NC(=O)[C@H](CC(N)=O)NC(=O)[C@H](Cc2c[nH]c3ccccc23)NC(=O)[C@H](C(C)C)NC(=O)[C@H](Cc2ccccc2)N(C)C(=O)[C@H](C(C)C)NC(=O)[C@H](C)NC(=O)CSC[C@@H](C(=O)NCCOCCOCCOCCOCCOCCOCCOCCOCCOCCOCCOCCOCCC(N)=O)NC(=O)[C@H](Cc2ccc(O)cc2)N(C)C(=O)[C@H](Cc2ccc(O)cc2)NC(=O)[C@H](CCCNC(=N)N)NC(=O)[C@H](CCCNC(=N)N)NC(=O)[C@H]([C@@H](C)CC)NC1=O [compound 140] ({CH2CO}-AV[NMeF]VWNAYIIRRY[NMeY]C[PEG12]-NH2; thioether N-15)
- pKd [3]: 7.00 to 9.00

Molecule: hTfRNo.894FLIP-vivotag750: control: cyclic peptide with inverted No. 894 sequence (SEQ ID NO: 202) bound to VivoTag 750 via PEG11 linker ({CH2CO}-A[NMeY]YRRIIYYNWVFVC-{PEG11′-VivoTag750}; thioether N-15 (inferred); not fully specified; printed as ClAc-Ala-MeTyr-Tyr-Arg-Arg-Ile-Ile-Tyr-Tyr-Asn-Trp-Val-Phe-Val-Cys) [reference compound]
- hTfR binding ability (SPR, result in words): no binding to hTfR was recognized

Molecule: CC[C@H](C)[C@@H]1NC(=O)[C@H](C2CCCCC2)NC(=O)[C@H](Cc2ccc(O)cc2)NC(=O)[C@H](Cc2ccc(O)cc2)NC(=O)[C@H](CC(N)=O)NC(=O)[C@H](Cc2c[nH]c3ccccc23)NC(=O)[C@H](C(C)C)NC(=O)[C@H](Cc2ccccc2)N(C)C(=O)[C@H](C(C)C)NC(=O)[C@H](C)NC(=O)CSC[C@@H](C(N)=O)NC(=O)[C@H](Cc2ccc(O)cc2)N(C)C(=O)[C@H](Cc2ccc(O)cc2)NC(=O)[C@H](CCCNC(=N)N)NC(=O)[C@H](CCCNC(=N)N)NC1=O [compound 282]
- pKd [2]: 7.00 to 9.00

Molecule: CC[C@H](C)[C@@H]1NC(=O)[C@H](Cc2ccc(O)cc2)NC(=O)[C@H](Cc2ccc(O)cc2)NC(=O)[C@H](CC(N)=O)NC(=O)[C@H](Cc2c[nH]c3ccccc23)NC(=O)[C@H](C(C)C)NC(=O)[C@H](Cc2ccccc2)NC(=O)[C@H](CCCNC(=N)N)NC(=O)[C@H](C)NC(=O)CSC[C@@H](C(N)=O)NC(=O)[C@H](Cc2ccc(O)cc2)N(C)C(=O)[C@H](Cc2ccc(O)cc2)NC(=O)[C@H](CCCNC(=N)N)NC(=O)[C@H](CCCNC(=N)N)NC(=O)[C@H]([C@@H](C)CC)NC1=O [compound 237]
- pKd [2]: 7.00 to 9.00

Molecule: CC[C@H](C)[C@@H]1NC(=O)[C@H](Cc2ccc(OCCN)cc2)NC(=O)[C@H](Cc2ccc(O)cc2)NC(=O)[C@H](CC(N)=O)NC(=O)[C@H](Cc2c[nH]c3ccccc23)N(C)C(=O)[C@H](C(C)C)NC(=O)[C@H](Cc2cccc(Cl)c2)N(C)C(=O)[C@H](C(C)C)NC(=O)[C@H](C)NC(=O)CSC[C@@H](C(N)=O)NC(=O)[C@H](Cc2ccc(O)cc2)N(C)C(=O)[C@H](Cc2ccccc2)NC(=O)[C@@H](CCCNC(=N)N)NC(=O)[C@H](CCCNC(=N)N)NC(=O)[C@H]([C@@H](C)CC)NC1=O [compound 321]
- pKd [1]: 7.00 to 9.00

Molecule: CC[C@H](C)[C@@H]1NC(=O)[C@H](Cc2ccc(O)cc2)NC(=O)[C@H](Cc2ccc(O)cc2)NC(=O)[C@H](CC(N)=O)NC(=O)[C@H](Cc2cn(CC(=O)O)c3ccccc23)NC(=O)[C@H](C(C)C)NC(=O)[C@H](Cc2cccc(Cl)c2)N(C)C(=O)[C@@H]2CCCC(=O)NCCCCC[C@H](NC(=O)[C@H]([C@@H](C)CC)NC1=O)C(=O)N[C@H](CCCNC(=N)N)C(=O)N[C@@H](Cc1ccccc1)C(=O)N(C)[C@@H](Cc1ccc(O)cc1)C(=O)N[C@H](C(N)=O)CSCC(=O)N[C@@H](C)C(=O)N2 [compound 419] ({CH2CO}-A[Aad][NMePhe(3-Cl)]V[Trp(1-CH2COOH)]NYYII[hLys][dR]F[NMeY]C-NH2; lactam 2-11; thioether N-15)
- pKd (surface plasmon resonance, peptide vs hTfR, read-out: KD value for hTfR by SPR (class symbol)): 7.00 to 9.00

Molecule: CC[C@H](C)[C@@H]1NC(=O)[C@H](Cc2ccc(OC)cc2)NC(=O)[C@H](Cc2ccc(O)cc2)NC(=O)[C@H](CC(N)=O)NC(=O)[C@H](Cc2c[nH]c3ccccc23)N(C)C(=O)[C@H](C(C)C)NC(=O)[C@H](Cc2cccc(Cl)c2)N(C)C(=O)[C@H](C(C)C)NC(=O)[C@H](C)NC(=O)CSC[C@@H](C(=O)NCC(=O)N[C@@H](CCCCN=[N+]=[N-])C(N)=O)NC(=O)[C@H](Cc2ccc(O)cc2)N(C)C(=O)[C@H](Cc2ccccc2)NC(=O)[C@@H](CCCNC(=N)N)NC(=O)[C@H](CCCNC(=N)N)NC(=O)[C@H]([C@@H](C)CC)NC1=O [compound 405] ({CH2CO}-AV[NMePhe(3-Cl)]V[NMeW]NYY(Me)IIR[dR]F[NMeY]CG[Lys(N3)]-NH2; thioether N-15)
- pKd (surface plasmon resonance, hTfR, read-out: KD value for hTfR by SPR (class symbol)): 7.00 to 9.00

Molecule: CCCCC[C@@H]1NC(=O)[C@H](C)NC(=O)CSC[C@@H](C(=O)NCCOCCOCCOCCOCCOCCOCCOCCOCCOCCOCCOCCOCCC(N)=O)NC(=O)[C@H](Cc2ccc(O)cc2)N(C)C(=O)[C@H](Cc2ccc(O)cc2)NC(=O)[C@H](CCCNC(=N)N)NC(=O)[C@H](CCCNC(=N)N)NC(=O)[C@H]([C@@H](C)CC)NC(=O)[C@H]([C@@H](C)CC)NC(=O)[C@H](Cc2ccc(O)cc2)NC(=O)[C@H](Cc2ccc(O)cc2)NC(=O)[C@H](CC(N)=O)NC(=O)[C@H](Cc2c[nH]c3ccccc23)NC(=O)[C@H](C(C)C)NC(=O)[C@H](Cc2ccccc2)N(C)C1=O [compound 130] ({CH2CO}-A[Ahp(2)][NMeF]VWNYYIIRRY[NMeY]C[PEG12]-NH2; thioether N-15)
- pKd [3]: 7.00 to 9.00

Molecule: CC[C@H](C)[C@@H]1NC(=O)[C@H](Cc2ccc(O)cc2)NC(=O)[C@H](Cc2ccc(O)cc2)NC(=O)[C@H](CC(N)=O)NC(=O)[C@H](Cc2c[nH]c3ccccc23)NC(=O)[C@H](C(C)C)NC(=O)[C@H](Cc2ccccc2)N(C)C(=O)[C@H](C(C)C)NC(=O)[C@H](C)NC(=O)CSC[C@@H](C(=O)NCC(=O)NCC(=O)N[C@@H](CO)C(=O)NCC(=O)N[C@@H](CO)C(=O)N[C@@H](CO)C(=O)NCC(=O)NCC(=O)N[C@@H](CO)C(=O)NCC(=O)N[C@@H](CO)C(=O)N[C@@H](CO)C(=O)N[C@@H](CCCCNC(=O)C2CCC(CN3C(=O)C=CC3=O)CC2)C(N)=O)NC(=O)[C@H](Cc2ccc(O)cc2)N(C)C(=O)[C@H](Cc2ccc(O)cc2)NC(=O)[C@H](CCCNC(=N)N)NC(=O)[C@H](CCCNC(=N)N)NC(=O)[C@H]([C@@H](C)CC)NC1=O (some centres unmarked) [compound 196]
- pKd (hTfR binding by SPR, hTfR No. 894 variant peptides, linker-added peptides and payload conjugates (Table 2), read-out: KD value obtained from the SPR measurement): 7.00 to 9.00

Molecule: CC[C@H](C)[C@@H]1NC(=O)[C@H](Cc2ccc(OC)cc2)NC(=O)[C@H](Cc2ccc(O)cc2)NC(=O)[C@H](CC(N)=O)NC(=O)[C@H](Cc2c[nH]c3ccccc23)N(C)C(=O)[C@H](C(C)C)NC(=O)[C@H](Cc2cccc(Cl)c2)N(C)C(=O)[C@H](CCC(=O)O)NC(=O)[C@H](C)NC(=O)CSC[C@@H](C(N)=O)NC(=O)[C@H](Cc2ccc(O)cc2)N(C)C(=O)[C@H](Cc2ccccc2)NC(=O)[C@@H](CCCNC(=N)N)NC(=O)[C@H](CCCCN)NC(=O)[C@H]([C@@H](C)CC)NC1=O [compound 228] ({CH2CO}-AE[NMePhe(3-Cl)]V[NMeW]NYY(Me)IIK[dR]F[NMeY]C-NH2; thioether N-15)
- pKd (SPR, peptides, linker-added peptides and FITC conjugates, Patent ID 203-230, read-out: KD): 7.00 to 9.00
